From paper PMC9032385, “A2A Adenosine Receptor Antagonists: Are Triazolotriazine and Purine Scaffolds Interchangeable?” (Molecules, 2022)

Assays:
[1] = biological target: T1, A2BAR (Homo sapiens, UniProt P29275); assay: Functional study at A2BAR (GloSensor cAMP assay; inhibition of NECA-stimulated adenylyl cyclase activity); assay type: cell-based; conditions: Ki calculated from IC50 of inhibition of NECA-stimulated adenylyl cyclase activity, CHO cells
T1 construct: expressed in transfected cells
T1 sequence (P29275 1-332): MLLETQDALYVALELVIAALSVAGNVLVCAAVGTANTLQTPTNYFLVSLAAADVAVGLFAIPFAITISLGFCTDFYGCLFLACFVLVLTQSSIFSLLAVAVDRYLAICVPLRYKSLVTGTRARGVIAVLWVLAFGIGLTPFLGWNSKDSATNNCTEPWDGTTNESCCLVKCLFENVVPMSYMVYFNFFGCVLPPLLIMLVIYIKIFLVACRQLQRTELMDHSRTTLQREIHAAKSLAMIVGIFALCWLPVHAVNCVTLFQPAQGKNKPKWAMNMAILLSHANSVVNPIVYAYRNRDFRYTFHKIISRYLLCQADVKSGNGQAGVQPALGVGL
Experimental: (§1) The affinities of the newly synthesized compounds 7–13 and 17–21 were determined in binding studies at human recombinant A1, A2A, and A3 ARs, stably transfected in Chinese hamster ovary (CHO) cells, using [^3H]CCPA (2-chloro-N^6-cyclopentylAdo), [^3H]NECA (5′-N-ethylcarboxamidoAdo), and [^3H]HEMADO (2-hexynyl-N^6-methylAdo) as respective radioligands. Most of the compounds were also evaluated at A2BARs in a functional study using the GloSensor cAMP assay. The results are reported in Table 1 as Ki values in nM (± standard errors). In the case of A2BARs, Ki-values were calculated from IC50-values determined by the inhibition of NECA-stimulated adenylyl cyclase activity.

[2] = biological target: T2, human recombinant A3AR (Homo sapiens, UniProt P0DMS8); assay: Radioligand binding at human A3AR ([3H]HEMADO displacement, CHO cell membranes); conditions: displacement of [3H]HEMADO, n = 3–5, means ± standard errors
T2 construct: expressed in transfected cells; membrane preparation
T2 sequence (P0DMS8 1-318): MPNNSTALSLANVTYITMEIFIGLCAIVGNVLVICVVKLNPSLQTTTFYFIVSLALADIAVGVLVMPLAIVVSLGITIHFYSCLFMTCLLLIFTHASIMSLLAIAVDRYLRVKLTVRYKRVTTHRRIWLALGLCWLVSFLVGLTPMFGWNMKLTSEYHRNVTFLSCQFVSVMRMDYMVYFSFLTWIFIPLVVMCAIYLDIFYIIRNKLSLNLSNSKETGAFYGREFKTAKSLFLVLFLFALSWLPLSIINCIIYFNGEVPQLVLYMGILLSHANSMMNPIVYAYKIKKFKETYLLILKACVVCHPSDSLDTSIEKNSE
Experimental: as §1
Cell culture: The Chinese hamster ovary cells (CHO) stably transfected with the desired ARs were grown in DMEM/F12 medium containing 10% FBS (fetal bovine serum), 100 U/mL penicillin, 100 µg/mL streptomycin, 2.5 μg/mL amphotericin B, 1 mM sodium pyruvate, 0.1 mg/mL genetecina (G418), and incubated at 37 °C in a gaseous mixture of 5% CO2: […].
Preparation of membranes: Cell membranes for binding assays were prepared mechanically detaching the cells from the petri and suspending them in a cold hypotonic buffer (5 mM Tris/HCl, 2 mM EDTA, pH 7.4). The cell suspension was homogenized (Ultra-Turrax, 2 × 15 s at maximum speed) and the homogenate centrifuged for 10 min (4 °C) to 1000× g. The supernatant was subsequently centrifuged for 30 min (4 °C) at 100,000× g and the pellet containing the membrane proteins was re-suspended in a specific buffer for each receptor subtype (A1: 50 mM Tris/HCl, pH 7.4; A2A: 50 mM Tris/HCl, 10 mM MgCl2, pH 7.4; A3: 50 mM Tris/HCl, 10 mM MgCl2, 1 mM EDTA, pH 8.25). The amount of the protein suspension was determined according to the […] using the BCA Protein Assay Kit (Pierce), frozen in liquid nitrogen, and stored at −80 °C.
Binding assays: The dissociation constants of the radioligand (KD) were calculated through saturation assays, while the dissociation constants of the compounds under study (Ki) were determined by competition experiments. All binding data were calculated by nonlinear regression curves using the software GraphPad Prism 5 (GraphPad Software, San Diego, CA, USA). The increasing concentrations of the radioligand saturation binding ([^3H]-CCPA for the A1 receptor subtype, [^3H]-NECA for the A2A receptor subtype, and [^3H]-HEMADO for the A3 receptor) subtype were incubated in a total volume of 250 μL containing 0.2 U/mL of Ado deaminase (ADA) and 12 micrograms of membrane proteins in the specific buffer. In competition experiments for the A1 receptor subtype, each compound was added at increasing concentrations, to the well containing 1 nM of [^3H]-CCPA, to a final volume of 200 μL. The samples were left to incubate for 3 h at room temperature, filtered in a filter 96-well plate (UniFilter GF/C, Perkin-Elmer Life and Analytical Science, Boston, MA) using the FilterMate Cell Harvester (Perkin-Elmer), and washed 3 times with cold distilled water. After drying the filter plate at 40 °C for 30′, they 20 μL of scintillating liquid (Microscint-20, Perkin-Elmer) was added to each well, and then the radioactivity was quantized with the MicroBeta2 Plate Counter (Perkin-Elmer). The conditions for binding experiments at A2A and A3 receptor subtypes were essentially the same as for the A1AR using [^3H]-NECA (N-ethylcarboxyamideAdo) at a concentration of 10 nM and [^3H]-HEMADO (2-(1-hexyne)-N^6-methylAdo) at a concentration of 1 nM as radioligands, respectively. The samples were incubated with 12 micrograms of protein for 3 h at room temperature and filtered as described above.
The non-specific binding was determined in the presence of 1 mM theophylline for the A1AR, or 100 µM R-PIA (N^6-(1-methyl-2-phenylethyl)Ado) for the A2A and A3 receptors.

CCn1c(-c2ccco2)nc2c(N)nc(NCCc3ccc(O)cc3)nc21 [compound 13, 4-(2-((6-Amino-9-ethyl-8-(furan-2-yl)-9H-purin-2-yl)amino)ethyl)phenol]
Ki [1]: 1430 nM
Ki [2]: 12 nM
